Data: US12064468B2, “Compositions and methods relating to a C-terminal peptide of troponin i with activity as a myofilament CA2+ desensitizer” (Wayne State University, priority 2019, dated 2024)
Ends that are not written are not given here.

Key:
mAb TnI-1 [1] = test: Western blot with mAb TnI-1 (epitope in the C-terminal end of TnI); format: binding, mouse; conditions: after denaturing SDS-PAGE and blotting
Protocol: SDS-PAGE was performed to monitor the expression and identify the C27 peptide in intact TnI and fusion protein constructs. Briefly, 14% Laemmli SDS-PAGE with an acrylamide:bisacrylamide ratio of 29:1 was used to monitor protein expression. Protein samples were prepared by dissolving the proteins in an SDS-PAGE gel sample buffer containing 2% SDS and 3% β-mercaptoethanol. The samples were run on 0.75 mm gels at 20 mA per gel using a Bio-Rad mini-gel system. Resolved gels were stained with Coomassie Blue R-250 and de-stained using 10% acetic acid. The results were documented by imaging using a high resolution scanner.
Tris-Tricine small pore SDS-gels were utilized to […]. Briefly, 15% SDS-PAGE with acrylamide:bisacrylamide ratio of 20:1 was used to monitor the recovery of peptides. Samples were prepared as above. The gel was run using different anode and cathode buffers as described in H. Schagger et al., 166(2) (1987) 368-379; J.-P. Jin, Journal of Biological Chemistry 270(12) (1995) 6908-6916. The running conditions and documentation of results were carried out as above.
The protein bands resolved on SDS-PAGE gels were electrically transferred to nitrocellulose (NC) membranes or polyvinylidene difluoride (PVDF) membranes using a Bio-Rad semidry electrotransfer apparatus at 5 mA per cm^2. The membranes were then blocked with 1% bovine serum albumin (BSA) in Tris-buffered saline (TBS) at room temperature for 30 minutes, and incubated with mAb TnI-1 against an epitope in the C-terminal end of TnI or mAb 3C11 against the Tx3 metal affinity purification tag at 4° C. overnight. The TnI-1 mAb was raised using standard hybridoma technology in which the immunization of mouse used purified intact chicken fast TnI. […] The 3C11 mAb was generated using standard hybridoma technology in which the immunization used a Tx3 metal binding tag fusion protein. […] Washed with 0.05% Triton X-100 and 0.1% SDS in TBS, the membranes were further incubated with alkaline phosphatase-conjugated goat anti-mouse IgG secondary antibody, washed again, and developed in BCIP-NTB substrate solution. The results were documented by imaging using a high resolution scanner.

[2] = target: T1, bovine cardiac α-tropomyosin (Bos taurus, UniProt Q5KR49); test: Competitive ELISA: peptide versus intact bovine cardiac TnI for tropomyosin binding; conditions: serial dilutions of peptide in solution
T1 construct: Purified bovine cardiac α-tropomyosin was coated on 96-well plate; from tissue; host or cells: bovine cardiac muscle (inferred from 'purified bovine cardiac')
Protocol: Competitive tropomyosin binding experiments were performed using a derivative protocol of the microtiter plate ELISA as described in B. J. Biesiadecki et al., Journal of Biomedicine and Biotechnology, (2011) 1-8. Purified bovine cardiac α-tropomyosin was coated on 96-well plate at 5 μg/mL in Buffer A at 4° C. overnight. Washed and blocked as above, bovine cardiac TnI was added, at a predetermined concentration that produces sub-maximal binding for the immobilized tropomyo sin, to serial dilutions of HcTnI-C27 or HcTnI-C27-H peptides for incubation at room temperature for 2 hours. The competition between the cardiac TnI C-terminal peptides and intact cardiac TnI for tropomyosin binding was measured via mAb 4H6 that recognizes an epitope in intact TnI but not in the C-terminal end peptide, see S. Akhter et al., FEBS Open Bio 5 (2015) 64-75, and HRP-anti-mouse IgG secondary antibody using standard ELISA procedure as described above.

mAb TnI-1 [3] = test: Competitive ELISA: peptide versus immobilized bovine cardiac TnI for mAb TnI-1; format: binding, mouse; conditions: physiologic solution
Protocol: To compare the folding and conformation of chemically synthesized HcTnI-C27 and HcTnI-C27-H peptides with that of the biologically synthesized counterparts, competitive ELISA affinity titrations against mAb TnI-1 were performed. 96-well microtiter plates were coated with purified bovine cardiac TnI in Buffer A and incubated at 4° C. overnight. Monoclonal antibody (mAb) TnI-1 was added, at a predetermined concentration that produces sub-maximal binding for the immobilized bovine cardiac TnI, to serial dilutions of biologically or chemically synthesized HcTnI-C27 and HcTnI-C27-H peptides. The effects of the peptides on competing with intact cardiac TnI for mAb TnI-1 were measured via HRP-anti-mouse IgG secondary antibody using standard ELISA procedure as described above.

[4] = test system: skinned mouse EDL muscle fibers; test: Force-pCa contractility of skinned mouse EDL muscle fibers; format: biochemical; conditions: 20 μM peptide, sarcomere length 2.7 μm
Text: Extensor digitorum longus (EDL) muscles were obtained from adult C57B/L6 mice immediately after euthanasia to prepare chemically permeabilized muscle preparations as described in J. Ochala et al., The FASEB Journal 25(6) (2011) 1903-1913; and S. M. Roche et al., Journal of Visualized Experiments 100 (2015). Briefly, whole EDL muscles were excised from mice and longitudinally dissected along fibers in a calcium free relaxing buffer. The muscle strips dissected were washed with the relaxing buffer and stored in a 35 mm dish at −20° C. in 50% glycerol relaxing-skinning solution to remove cellular membranes and the endogenous calcium handling system for use in the measurements of calcium sensitivity and force-pCa relationship.
For contractility studies, the storage dish was placed on a thermal-controlled metal stage at 0° C. under a dissection scope. Cryosectioned cardiac muscle strips selected with cardiomyocytes clearly organized along the long axis and EDL muscle fibers were mounted between two aluminum T-clips and transferred to an 8-chamber thermo-controlled stage (802D, Aurora Scientific) on an inverted microscope in relaxation buffer at 6-8° C. Seen through a 20× lens, the muscle preparation was connected to a force transducer (403A, Aurora Scientific) and a length controller (322-C, Aurora Scientific). The buffer was then switched to a skinning solution (relaxation buffer containing 1% Triton X-100) for 20 min to further permeabilize the muscle strips. After a wash with relaxation buffer, the permeabilized muscle strip was placed in pCa 9.0 buffer made by mixing the relaxing buffer (pCa 10.0) with an activation buffer (BES 40 mM, EGTA 10 mM, MgCl2 6.64 mM, ATP 6.23 mM, DTT, 1 mM, CaCl2 10 mM, creatine phosphate 33 mM, creatine kinase 200 U/mL, K-propionate 2.09 mM, pH 7.0, plus protease inhibitor cocktail, pCa 4.0) and the sarcomere length was measured through a digital camera attached to the microscope and adjusted to resting sarcomere length of 2.7 μm for EDL muscle fibers or 2.0 μm and 2.3 μm for cardiac muscle fibers. […]

[5] = test system: skinned rat ventricular papillary muscle; test: Force-pCa contractility of skinned rat ventricular papillary muscle sections; format: biochemical; conditions: 20 μM peptide
Protocol: (§1) Permeabilized rat and mouse left ventricular papillary muscle preparations were prepared using a skinned cryosection method. Papillary muscles were dissected with a portion of ventricular free wall in one end and valve tendon in the other end. The isolated papillary muscle was pinned down on a cork at the two ends using 30 gauge needles. A small drop of optimal cutting temperature (O.C.T.) compound was used to fill the space between the muscle tissue and the surface of the cork before flash freezing by quickly submerging in liquid nitrogen. The frozen papillary muscle was sectioned longitudinally at a thickness of 35 μm using a cryostat and collected on a glass slide. Four stacked razor blades were used to cut the muscle sections longitudinally into 140-150 μm wide strips. The muscle strips were washed in a relaxing buffer (BES 40 mM, EGTA 10 mM, MgCl2 6.86 mM, ATP 5.96 mM, DTT 1 mM, creatine phosphate 33 mM, creatine kinase 200 U/mL, K-propionate 3.28 mM, pH 7.0, plus protease inhibitor cocktail) and then gently transferred into myofibril relaxation buffer containing 50% glycerol in a 35 mm culture dish and stored at −20° C. for later use in force-pCa studies.
For contractility studies, the storage dish was placed on a thermal-controlled metal stage at 0° C. under a dissection scope. Cryosectioned cardiac muscle strips selected with cardiomyocytes clearly organized along the long axis and EDL muscle fibers were mounted between two aluminum T-clips and transferred to an 8-chamber thermo-controlled stage (802D, Aurora Scientific) on an inverted microscope in relaxation buffer at 6-8° C. Seen through a 20× lens, the muscle preparation was connected to a force transducer (403A, Aurora Scientific) and a length controller (322-C, Aurora Scientific). The buffer was then switched to a skinning solution (relaxation buffer containing 1% Triton X-100) for 20 min to further permeabilize the muscle strips. After a wash with relaxation buffer, the permeabilized muscle strip was placed in pCa 9.0 buffer made by mixing the relaxing buffer (pCa 10.0) with an activation buffer (BES 40 mM, EGTA 10 mM, MgCl2 6.64 mM, ATP 6.23 mM, DTT, 1 mM, CaCl2 10 mM, creatine phosphate 33 mM, creatine kinase 200 U/mL, K-propionate 2.09 mM, pH 7.0, plus protease inhibitor cocktail, pCa 4.0) and the sarcomere length was measured through a digital camera attached to the microscope and adjusted to resting sarcomere length of 2.7 μm for EDL muscle fibers or 2.0 μm and 2.3 μm for cardiac muscle fibers. Calcium activated force was examined at pCa 6.5, 6.3, 6.0, 5.8, 5.5, 5.0, and 4.5 at 15° C. using calcium-EGTA buffer sets made using a formula described in S. M. Roche et al., Journal of Visualized Experiments 100 (2015). HcTnI-C27 peptide was then added at 20 μM and the force-pCa measurements were repeated. The force-pCa curves were plotted and fitted using Hill exponential equation for data analysis, see S. M. Roche et al., Journal of Visualized Experiments 100 (2015).

[6] = test system: skinned mouse ventricular papillary muscle; test: Force-pCa contractility of skinned mouse ventricular papillary muscle; format: biochemical; conditions: 20 μM peptide
Protocol: as §1
For contractility studies, the storage dish was placed on a thermal-controlled metal stage at 0° C. under a dissection scope. […] After a wash with relaxation buffer, the permeabilized muscle strip was placed in pCa 9.0 buffer made by mixing the relaxing buffer (pCa 10.0) with an activation buffer (BES 40 mM, EGTA 10 mM, MgCl2 6.64 mM, ATP 6.23 mM, DTT, 1 mM, CaCl2 10 mM, creatine phosphate 33 mM, creatine kinase 200 U/mL, K-propionate 2.09 mM, pH 7.0, plus protease inhibitor cocktail, pCa 4.0) and the sarcomere length was measured through a digital camera attached to the microscope and adjusted to resting sarcomere length of 2.7 μm for EDL muscle fibers or 2.0 μm and 2.3 μm for cardiac muscle fibers. […]

mAb TnI-1 [7] = test: ELISA titration of mAb TnI-1 against coated fusion proteins / cardiac TnI, non-denaturing; format: binding, mouse; conditions: non-denaturing conditions, protein coated on microtiter plate
Protocol: The ELISA procedure used in the present study for epitope structure and protein binding studies was performed as described in B. J. Biesiadecki et al., Journal of Biomedicine and Biotechnology, (2011) 1-8. Briefly, 96-well microtiter plates were coated with SUMO-HcTnI-C27 fusion protein, SUMO-HcTnI-C27-H fusion protein, purified bovine cardiac TnI, or R192H mutant mouse cardiac TnI (2 μg/mL in Buffer A containing 0.1 M KC1, 3 mM MgCl2, 10 mM PIPES, pH 7.0, 100 microliters/well) at 4° C. overnight. The plates were washed with Buffer T (0.05% Tween-20 in Buffer A) for 10 minutes and tapped dry. The wells were blocked using Buffer B (1% BSA in Buffer T) at room temperature for one hour. After washing again with Buffer T, serial dilutions of primary mAb against the coated protein were added in triplicates in Buffer D (dilution buffer, 0.1% BSA in Buffer T) and the plate was incubated at room temperature for two hours. After Buffer T washes, horseradish peroxidase (HRP)-conjugated anti-mouse immunoglobulin secondary antibody was added to incubate at room temperature for one hour. After final washes, H2O2-2,2′-azinobis-(3-ethylbenzthiazolinesulfonic acid) substrate solution was added for colorimetric development at room temperature and the plate was read using an automated microplate reader at 420 nm at 5 minute intervals for 30 minutes.
The ELISA experiments were done in triplicate wells. […]

[8] = sarcomere lengths 2.0 μm and 2.3 μm

ENREVGDWHKNIDALSGMEGRKKKFES (C-terminal portion of human cardiac troponin I with H substitution for R at position 9) [HcTnI-C27-H, R192H mutant of the C-terminal 27 amino acid peptide of human cardiac TnI, reference compound]
reactivity to mAb TnI-1 in Western blot (mAb TnI-1 [1]): remains non-reactive to mAb TnI-1 | competition with intact bovine cardiac TnI for binding to immobilized tropomyosin [2]: diminished | competition with intact cardiac TnI for binding of mAb TnI-1, synthetic versus biologically made peptide (mAb TnI-1 [3]): drastically lost the binding affinity for mAb TnI-1

ENREVGDWRKNIDALSGMEGRKKKFES (C-terminal portion of human cardiac troponin I) [HcTnI-C27, the C-terminal 27 amino acid peptide of human cardiac TnI]
reactivity to mAb TnI-1 in Western blot (mAb TnI-1 [1]): remains reactive to mAb TnI-1 | competition with intact bovine cardiac TnI for binding to immobilized tropomyosin [2]: dose-dependent competition | competition with intact cardiac TnI for binding of mAb TnI-1, synthetic versus biologically made peptide (mAb TnI-1 [3]): nearly identical effectiveness | cooperativity (n) of force-pCa curve [4]: significantly decreased cooperativity | maximum force production [4]: not affected | myofilament Ca2+ sensitivity [4]: myofilament Ca^2+-desensitization effect predominantly in the activated state | pCa50 and cooperativity ([5]; sarcomere length 2.0 μm): small effect on lowering pCa50 and cooperativity | Ca2+-sensitization effect of increasing sarcomere length ([5]; sarcomere length 2.0 μm to 2.3 μm): diminished the Ca^2+-sensitization effect of increasing sarcomere length from 2.0 μm to 2.3 μm | cooperativity ([5]; sarcomere length 2.3 μm): trend of decreasing cooperativity | pCa50 ([5]; sarcomere length 2.3 μm): statistically significant right-shift of pCa50 | maximum force production [5, 8]: not affected | cooperativity ([6]; sarcomere length 2.0 μm, activated state): significantly lowered cooperativity | Ca2+ sensitivity (force-pCa curves) [6, 8]: right-shifts of the force-pCa curves | maximum force production [6, 8]: not significantly affected

Tx3-SUMO-HcTnI-C27-H: HcTnI-C27-H (R192H mutant) expressed as Tx3-SUMO fusion protein (ENREVGDWHKNIDALSGMEGRKKKFES; also: expressed as Tx3-SUMO fusion protein) [reference compound]
reactivity to mAb TnI-1 in Western blot (mAb TnI-1 [1]): lost binding to mAb TnI-1 | binding of mAb TnI-1 in ELISA titration (mAb TnI-1 [7]): clearly detectable but significantly decreased binding to mAb TnI-1

Tx3-SUMO-HcTnI-C27: HcTnI-C27 expressed as fusion protein with Tx3 metal-binding tag and SUMO substrate domain (ENREVGDWRKNIDALSGMEGRKKKFES; also: expressed as Tx3-SUMO fusion protein)
reactivity to mAb TnI-1 in Western blot (mAb TnI-1 [1]): reactive to mAbTnI-1 | binding of mAb TnI-1 in ELISA titration (mAb TnI-1 [7]): saturable binding of mAb TnI-1
